Read-outs that look alike come from different tables or passages of the source.

One data set addresses T1, CGRP receptor complex (Homo sapiens, UniProt O60894+Q16602).
T1 construct: SK-N-MC (neuroepithelioma cells) from National Science and Technology Infrastructure; host or cells: SK-N-MC
Nature of the data set: determination of cell functional antagonism - cAMP determination. The note with it: inhibition of CGRP-stimulated cAMP formation in SK-N-MC cells. Type of data set: cell-based. The method, then: A CGRP receptor complex was coupled with Gs in G protein, the combination of CGRP and CGRP receptor complex led to Gs activation, and cAMP (3',5'-cyclic adenosine monophosphate) was produced.
The ability of the compound of the present invention to inhibit CGRP-stimulated cAMP formation in SK-N-MC cells was determined.
SK-N-MC (neuroepithelioma cells) from National Science and Technology Infrastructure - Biomedical Materials and Cell Resources.
The SK-N-MC cells were resuscitated and cultured in advance, and a cell confluence degree should be 70%-80% before use.
4.2 A sample dilution, a tested compound and α-CGRP (human) were prepared.
The SK-N-MC cells were digested, centrifuged, then resuspended with the sample dilution, and inoculated into a 384-well plate. Each well was added with the α-CGRP (human) and the tested compound respectively, and blown and mixed evenly. The well plate was adhered with a sealing film, and placed on an enzyme-labeled incubator to incubate at 25°C.
4.4 cAMP determination: carried out according to LANCE Ultra cAMP Kit specification EucAMP tracer and ULight-anti-cAMP working solutions were prepared in the dark, respectively added into the well plate, and blown and mixed evenly. The well plate was adhered with a sealing film, and placed on an enzyme-labeled incubator to incubate at 25°C.
4.5 A luminescence value was read by a chemiluminescent module of an automatic enzyme-labeled instrument.
Background: cAMP levels reflect the balance of adenylyl cyclase and phosphodiesterase activity.

Data set [1] can be described thus: stability test in liver microsomes (rat). The note with it: Rat liver microsomes, 60 min. Format: in vitro ADME. As to the method: (§1) The stability of the compound of the present invention in liver microsomes of rat, monkey and human was determined. Tested compounds of the present invention were the compounds in Examples 6 and 8 , and a control drug was Zavegepant.
(§2) 3.2 An appropriate amount of liver microsome solution was transferred into a 1 mL 96-deep-well plate, added with a tested drug liquid (or a probe substrate solution), and pre-incubated in a thermal mixer at 37°C for 5 minutes. Two parts of mixed solutions were taken out from the system and added with 1×PBS to replace NADPH, and the mixed solutions were taken out at 0 and 60 minutes respectively, and added with methanol (containing an internal standard) to terminate the reaction. In the remaining mixed system, each well was added with NADPH to start the reaction. In the tested substance group, mixed solutions were taken out from the system at 0, 5, 15, 30, 45 and 60 minutes, and in the control group, mixed solutions were taken out from the system at 0, 30 and 60 minutes, and the mixed solutions were added methanol (containing an internal standard) to terminate the reaction. All samples of the terminated reaction were mixed evenly and centrifuged in a centrifuge at 3800 rpm for 15 minutes, and the supernatant was taken for LC-MS/MS analysis.
(§3) A peak area was determined by an extracted ion chromatogram. A slope value k was determined by linear regression of a remaining percentage of a parent drug relative to a natural logarithm of an incubation time curve. According to the slope, in-vitro half-life periods (t1/2) were respectively calculated, and in-vitro intrinsic clearance rates (CLint, represented by µL/min/mg protein) were calculated. Calculation formulas were as follows: t1/2 = ln2/k = 0.693/k; and CLint = 0.693/t1/2 /liver microsome protein concentration [formula]
(Liver microsomes are vesicles of endoplasmic reticulum, rich in cytochrome P450 enzymes.)

Data set [2] can be described thus: stability test in liver microsomes (monkey). Type of data set: in vitro ADME. The note with it: Monkey liver microsomes, 60 min. As to the method:
as §1, §2, §3

Data set [3] in a line: stability test in liver microsomes (human). Format: in vitro ADME. The following applies: Human liver microsomes, 60 min. The method, then:
as §1, §2, §3

A short description of data set [4]: PK properties in SD rats with or without 0.2% alkyl glycoside (DDM). Format: in vivo. The following applies: for Tmax: Sprague-Dawley, rat, in vivo, inhaled or intranasal. The source says: During preparation of a test sample in the Test Example 5, a drug solution group with 0.2% dodecyl-β-D-maltoside (DDM) was also established and prepared in parallel, so as to compare and observe changes of PK properties in rats administered with the drug solution group with 0.2% dodecyl-β-D-maltoside (DDM) and the drug solution group without dodecyl-β-D-maltoside (DDM).

Data set [5] is described as follows: PK properties in SD rats with different concentrations of alkyl glycoside (0.05% and 5% DDM). Type of data set: in vivo. The following applies: intranasal, 5% DDM vs without DDM. The source says:
During preparation of a test sample in the Test Example 7, drug solution groups with 0.05% and 5% dodecyl-β-D-maltosides (DDM) were established and prepared in parallel, so as to compare and observe changes of PK properties in rats administered with the drug solution groups with two different concentrations of dodecyl-β-D-maltosides (DDM).

The conditions of data set [6]: oral administration with alkyl glucoside, according to CN202180077330.9; cited from earlier work.

T1 sequence (Q16602 23-461): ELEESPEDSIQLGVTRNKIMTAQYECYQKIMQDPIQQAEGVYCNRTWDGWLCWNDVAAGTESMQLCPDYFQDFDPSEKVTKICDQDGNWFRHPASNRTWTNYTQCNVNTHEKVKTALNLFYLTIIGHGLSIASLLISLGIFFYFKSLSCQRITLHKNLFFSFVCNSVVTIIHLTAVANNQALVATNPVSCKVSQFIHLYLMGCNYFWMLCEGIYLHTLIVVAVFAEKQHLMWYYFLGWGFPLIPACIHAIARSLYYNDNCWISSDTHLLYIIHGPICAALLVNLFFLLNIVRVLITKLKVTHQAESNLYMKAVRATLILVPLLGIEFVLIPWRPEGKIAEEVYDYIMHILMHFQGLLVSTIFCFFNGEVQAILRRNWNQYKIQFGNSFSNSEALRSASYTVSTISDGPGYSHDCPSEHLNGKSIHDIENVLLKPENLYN
T1 sequence (O60894 27-148): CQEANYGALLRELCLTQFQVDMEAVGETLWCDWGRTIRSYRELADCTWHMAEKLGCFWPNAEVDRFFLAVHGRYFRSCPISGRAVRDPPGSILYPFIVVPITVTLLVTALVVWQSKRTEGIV

A word on the IC50: it is the point on the concentration scale where inhibition reaches its midpoint. Turning to `Cc1cc(C[C@@H](NC(=O)N2CCC(c3cc4c([nH]c3=O)CCCS4)CC2)C(=O)N2CCN(C3CCN(C)CC3)CC2)cc2cn[nH]c12` [Example 12, (R)-N-(3-(7-methyl-1H-indazole-5-yl)-1-(4-(1-methylpiperidine-4-yl)piperazine-1-yl)-1-oxopropan-2-yl)-4-(6-oxo-3,4,5,6-tetrahydro-2H-thiopyrano[3,2-b]pyridine-7-yl)piperidine-1-formamide], the IC50 at CGRP receptor complex came out at 16.9 nM.
Turning to `Cc1cc(C[C@@H](NC(=O)C2CCN(c3cc4c([nH]c3=O)SCCC4)CC2)C(=O)N2CCN(C3CCN(C)CC3)CC2)cc2cn[nH]c12` [Example 21, (R)-N-(3-(7-methyl-1H-indazole-5-yl)-1-(4-(1-methylpiperidine-4-yl)piperazine-1-yl)-1-oxopropan-2-yl)-1-(7-oxo-3,4,7,8-tetrahydro-2H-thiopyrano[2,3-b]pyridine-6-yl)piperidine-4-formamide], at CGRP receptor complex, the IC50 is 590 nM.
Still for that read-out and setting: as for `Cc1cc(C[C@@H](NC(=O)N2CCC(c3cc4c([nH]c3=O)SCCC4)CC2)C(=O)N2CCC(N3CCN(C)CC3)CC2)cc2cn[nH]c12` [Example 25, (R)-N-(3-(7-methyl-1H-indazole-5-yl)-1-(4-(4-methylpiperazine-1-yl)piperidine-1-yl)-1-oxopropan-2-yl)-4-(7-oxo-3,4,7,8-tetrahydro-2H-thiopyrano[2,3-b]pyridine-6-yl)piperidine-1-formamide], the figure is 0.79 nM; as for `Cc1cc(C[C@@H](NC(=O)N2CCC(c3cc4c([nH]c3=O)SCC4)CC2)C(=O)N2C3CCC2CC(N2CCCCC2)C3)cc2cn[nH]c12` (stereo partly drawn) [Example 34, N-((2R)-3-(7-methyl-1H-indazole-5-yl)-1-oxo-1-(3-(piperidine-1-yl)-8-azabicyclo[3.2.1]octane-8-yl)propan-2-yl)-4-(6-oxo-2,3,6,7-tetrahydrothieno[2,3-b]pyridine-5-yl)piperidine-1-formamide], 0.2 nM; as for `[2H]C1([2H])SCc2cc(C3CCN(C(=O)N[C@H](Cc4cc(C)c5[nH]ncc5c4)C(=O)N4CCN(C5CCN(C)CC5)CC4)CC3)c(=O)[nH]c21` [Example 14, (R)-N-(3-(7-methyl-1H-indazole-5-yl)-1-(4-(1-methylpiperidine-4-yl)piperazine-1-yl)-1-oxopropan-2-yl)-4-(2-oxo-1,2,5,7-tetrahydrothieno[3,4-b]pyridine-3-yl-7,7-d2)piperidine-1-formamide], 6.85 nM.
With `Cc1cc(C[C@@H](NC(=O)N2CCC(c3cc4c([nH]c3=O)CCSC4)CC2)C(=O)N2CCN(C3CCN(C)CC3)CC2)cc2cn[nH]c12` [Example 15, (R)-N-(3-(7-methyl-1H-indazole-5-yl)-1-(4-(1-methylpiperidine-4-yl)piperazine-1-yl)-1-oxopropan-2-yl)-4-(2-oxo-1,5,7,8-tetrahydro-2H-thiopyrano[4,3-b]pyridine-3-yl)piperidine-1-formamide], the IC50 on CGRP receptor complex was determined as 10.1 nM.
With `Cc1cc(C[C@@H](NC(=O)N2CCC(c3cc4c([nH]c3=O)C3CCC4C3)CC2)C(=O)N2CCN(C3CCN(C)CC3)CC2)cc2cn[nH]c12` (stereo partly drawn) [Example 45, N-((R)-3-(7-methyl-1H-indazole-5-yl)-1-(4-(1-methylpiperidine-4-yl)piperazine-1-yl)-1-oxopropan-2-yl)-4-(2-oxo-1,2,5,6,7,8-hexahydro-5,8-methanoquinoline-3-yl)piperidine-1-formamide], the IC50 at CGRP receptor complex came out at 26 nM.
Turning to `Cc1cc(C[C@@H](NC(=O)N2CCC(c3cc4ccccc4[nH]c3=O)CC2)C(=O)N2CCN(C3CCN(C)CC3)CC2)cc2cn[nH]c12` [Zavegepant, zavegepant, reference compound], the “% remaining (60 min)” value is 95.5% in data set [1], 72.1% in data set [2] and 57.5% in data set [3]. Besides, the Tmax in data set [4] (0.2% DDM) is 12.5 min; in data set [4] (not added with DDM (0%DDM)), 15 min; in data set [6], “prolonged to some extent”. Also, the “Tmax(DDM 0.2%)/ Tmax(DDM 0%)” value in data set [4] (intranasal, 0.2% dodecyl-β-D-maltoside (DDM) vs without DDM) is 83.6%. Further, the “Tmax(DDM 5%)/ Tmax(DDM 0%)” value in data set [5] amounted to 50%. Also, in data set [6], the AUC result is given as “no obvious changes”. For the same compound, the Cmax entry in data set [6] is “no obvious changes”.
On to `Cc1cc(C[C@@H](NC(=O)N2CCC(c3cc4c([nH]c3=O)SCC=C4)CC2)C(=O)N2CCN(C3CCN(C)CC3)CC2)cc2cn[nH]c12` [Example 48, (R)-N-(3-(7-methyl-1H-indazole-5-yl)-1-(4-(1-methylpiperidine-4-yl)piperazine-1-yl)-1-oxopropan-2-yl)-4-(7-oxo-7,8-dihydro-2H-thiopyrano[2,3-b]pyridine-6-yl)piperidine-1-formamide], for which the IC50 on CGRP receptor complex amounted to 0.15 nM.
